Experimental findings from patent US20060183800A1, “Methods and fluorinated compositions for treating amyloid-related diseases” (priority 2004, published 2006) are described below.

Each structure is given as a SMILES string.

This test has as its target solubilized Aβ40 (Homo sapiens, UniProt P05067). Description: MS (mass spectrometry) binding assay for Aβ40. The protocol: The test compounds were synthesized and screened by mass spectrometry (“MS”) assays. The MS assay gives data on the ability of compounds to bind to proteins, in this example, to β-amyloid.
In the MS assay for Aβ40, the sample was prepared as an aqueous solution (adding 20% ethanol if necessary to solubilize in water), 200 μM of a test compound and 20 μM of solubilized Aβ40, or 400 μM of a test compound and 40 μM of solubilized Aβ40. The pH value of the sample was adjusted to 7.4 (±0.2) by addition of 0.1% aqueous sodium hydroxide. The solution was then analyzed by electrospray ionization mass spectrometry using a Waters ZQ 4000 mass spectrometer. The sample was introduced by direct infusion at a flow-rate of 25 μL/min within 2 hr. after sample preparation. The source temperature was kept at 70° C. and the cone voltage was 20 V for all the analysis. Data were processed using Masslynx 3.5 software. The MS assay gives data on the ability of compounds to bind to soluble Aβ.

solubilized Aβ40, sequence (P05067 672-711 limits assumed): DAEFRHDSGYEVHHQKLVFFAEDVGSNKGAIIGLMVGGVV

In the case of `O=S(=O)(O)CCCNCC(F)(F)F` [3-[(2,2,2-trifluoroethyl)amino]-1-propanesulfonic acid], the “binding to soluble Aβ40” value is reported as 20-44% (200 μM of test compound) and 45-59% (400 μM of test compound).
